The text below walks through data of publication PMC4648043, “Development of Small-Molecule Trypanosoma brucei N-Myristoyltransferase Inhibitors: Discovery and Optimisation of a Novel Binding Mode” (Chemmedchem, 2015).

Bounds are passed on as bounds.

For test [1], the target named is T1, hNMT (Homo sapiens, UniProt P30419).
T1 sequence (P30419 1-496): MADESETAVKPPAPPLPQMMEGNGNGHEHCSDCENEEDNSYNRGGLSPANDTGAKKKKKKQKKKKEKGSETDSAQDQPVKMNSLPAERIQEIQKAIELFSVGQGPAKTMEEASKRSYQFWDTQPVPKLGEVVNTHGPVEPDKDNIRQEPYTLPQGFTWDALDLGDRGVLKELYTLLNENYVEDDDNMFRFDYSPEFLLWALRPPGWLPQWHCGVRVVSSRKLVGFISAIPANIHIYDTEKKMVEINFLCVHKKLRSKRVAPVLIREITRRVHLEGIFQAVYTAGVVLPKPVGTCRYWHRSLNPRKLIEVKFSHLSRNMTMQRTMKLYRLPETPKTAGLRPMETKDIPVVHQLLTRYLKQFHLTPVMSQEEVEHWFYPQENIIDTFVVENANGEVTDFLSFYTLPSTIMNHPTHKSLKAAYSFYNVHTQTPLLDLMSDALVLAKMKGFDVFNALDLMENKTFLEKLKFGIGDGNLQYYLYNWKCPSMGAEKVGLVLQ
The test can be described thus: human NMT enzyme inhibition assay. It counts as biochemical. Conditions: mean of two or more determinations.
Method: (§1) Parasite and NMT assays: These were carried out as described previously.[8–10]

Test [2] has as its target T2, TbNMT (Trypanosoma brucei brucei, UniProt Q388H8).
T2 sequence (Q388H8 1-446): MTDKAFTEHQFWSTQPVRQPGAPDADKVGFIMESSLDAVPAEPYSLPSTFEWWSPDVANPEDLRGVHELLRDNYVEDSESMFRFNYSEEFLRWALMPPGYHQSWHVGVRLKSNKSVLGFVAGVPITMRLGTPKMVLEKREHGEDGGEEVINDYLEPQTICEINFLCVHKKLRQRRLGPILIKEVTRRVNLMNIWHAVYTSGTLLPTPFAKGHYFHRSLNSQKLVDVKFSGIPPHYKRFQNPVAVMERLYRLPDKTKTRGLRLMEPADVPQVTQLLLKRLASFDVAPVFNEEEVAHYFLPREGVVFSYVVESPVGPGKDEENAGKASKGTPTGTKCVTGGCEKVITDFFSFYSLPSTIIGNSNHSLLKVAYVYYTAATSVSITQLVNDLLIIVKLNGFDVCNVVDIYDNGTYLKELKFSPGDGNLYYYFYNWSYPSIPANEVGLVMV
In words: biochemical. It counts as biochemical. As to conditions: for IC50: mean of two or more determinations, read-out: IC50 TbNMT; for LE TbNMT (ligand efficiency): calculated as 0.6 ln(IC50)/(heavy atom count).
Method: as §1

One may read the IC50 as the midpoint of a concentration-inhibition curve. With `CCN1C(=O)CSC1c1ccc(O)c(OC)c1` (centres unmarked) [Compound 3, 3-Ethyl-2-(4-hydroxy-3-methoxyphenyl)thiazolidin-4-one], the half-maximal inhibitory concentration (IC50) in test [1] and in test [2] was above 100 µM throughout.
As for `COc1cc(C2SCC(=O)N2c2ccccn2)ccc1O` (centres unmarked) [Compound 4, 2-(4-Hydroxy-3-methoxyphenyl)-3-(pyridin-2-yl)thiazolidin-4-one], the IC50 in test [1] and in test [2] was above 100 µM each time.
Regarding `COc1cccc(C2SCC(=O)N2Cc2ccco2)c1` (centres unmarked) [Compound 5, 3-(Furan-2-ylmethyl)-2-(3-methoxyphenyl)thiazolidin-4-one], the IC50 in test [1] and in test [2] was above 100 µM each time.
`O=C1CSC(c2ccccn2)N1c1cccc(Cl)c1` (centres unmarked) [Compound 7]: in test [1], the IC50 is above 50 µM. Besides, in test [2], the “LE TbNMT (ligand efficiency)” value is reported as 0.36 and the IC50 worked out at 13 µM.
On to `O=C1CSC(c2ccccn2)N1c1ccc2ccccc2c1` (centres unmarked) [Compound 8], for which the IC50 in test [1] and in test [2] was above 100 µM in each case.
`O=C1CSC(c2ccccn2)N1c1ccccc1` (centres unmarked) [Compound 9] came in with a 50% inhibitory concentration (IC50) in test [1] of 66 µM. In test [2], the “LE TbNMT (ligand efficiency)” value is listed as 0.35 and the IC50 is 31 µM.
As to `CCOC(=O)C(C)N1C(=O)COc2ccccc21` (centres unmarked) [Compound 15, Ethyl 2-(3-oxo-2H-benzo[b][1,4]oxazin-4(3H)-yl)propanoate], the IC50 in test [1] and in test [2] was above 100 µM in each case.
In test [1], `CCOC(=O)CCN1C(=O)COc2ccccc21` [Compound 16, Ethyl 3-(3-oxo-2H-benzo[b][1,4]oxazin-4(3H)-yl)propanoate] returned an IC50 above 100 µM. For the same compound, in test [2], the “LE TbNMT (ligand efficiency)” value is given as 0.38 and the half-inhibitory concentration (IC50) worked out at 13 µM.
As for `O=C(CCN1C(=O)COc2ccccc21)N1CCCC1` [Compound 17, 4-(3-Oxo-3-(pyrrolidin-1-yl)propyl)-2H-benzo[b][1,4]oxazin-3(4H)-one], the IC50 in test [1] was above 100 µM. In addition, in test [2], the “LE TbNMT (ligand efficiency)” value is on record as 0.34 and the concentration for half-maximal inhibition (IC50) is 11 µM.
For the compound `CN(C)C(=O)CCN1C(=O)COc2ccccc21` [Compound 18, N,N-Dimethyl-3-(3-oxo-2H-benzo[b][1,4]oxazin-4(3H)-yl)propanamide], the half-maximal inhibitory concentration (IC50) is above 100 µM in test [1] and 50 µM in test [2].
On the same counts, the results for `CN(C)C(=O)CN1C(=O)COc2ccccc21` [Compound 19, N,N-Dimethyl-2-(3-oxo-2H-benzo[b][1,4]oxazin-4(3H)-yl)acetamide] are above 100 µM and above 100 µM.
`CNC(=O)CN1C(=O)COc2ccccc21` [Compound 20, N-Methyl-2-(3-oxo-2H-benzo[b][1,4]oxazin-4(3H)-yl)acetamide]: the IC50 in test [1] and in test [2] was above 100 µM each time.
With `O=C(CN1C(=O)COc2ccccc21)N1CCCC1` [Compound 21, 4-(2-Oxo-2-(pyrrolidin-1-yl)ethyl)-2H-benzo[b][1,4]oxazin-3(4H)-one], in test [2], the half-maximal inhibitory concentration (IC50) was above 100 µM.
In turn, `O=C1COc2ccccc2N1Cc1nc2ccccc2o1` [Compound 22, 4-(Benzo[d]oxazol-2-ylmethyl)-2H-benzo[b][1,4]oxazin-3(4H)-one] gave an IC50 in test [1] above 100 µM. In test [2], the “LE TbNMT (ligand efficiency)” value is listed as 0.31 and the IC50 is 24 µM.
For `Cc1cc(CN2C(=O)COc3ccccc32)no1` [Compound 23, 4-((5-Methylisoxazol-3-yl)methyl)-2H-benzo[b][1,4]oxazin-3(4H)-one] the same measures were above 100 µM, 0.43 and 2.9 µM.
Turning to `Cc1nc(CN2C(=O)COc3ccccc32)cs1` [Compound 24, 4-((2-Methylthiazol-4-yl)methyl)-2H-benzo[b][1,4]oxazin-3(4H)-one], the IC50 in test [1] was above 100 µM. Also, in test [2], the “LE TbNMT (ligand efficiency)” value is 0.33 and the IC50 amounted to 44 µM.
On the same counts, the results for `O=C1COc2ccccc2N1Cc1ccccn1` [Compound 25, 4-(Pyridin-2-ylmethyl)-2H-benzo[b][1,4]oxazin-3(4H)-one] are above 100 µM, 0.38 and 22 µM.
